Results taken from patent publication US9435786B2, “Method for determining differentiation level of pluripotent stem cells” (HAMAMATSU PHOTONICS K.K., priority 2012, dated 2016).

Tests used:
Type in all cases: cell-based
[1] = system: 253G1 iPS cell line derived from a human adult fibroblast; test: Flatness of cell surface in a whole visual field, reflection quantitative phase microscope (Example 1); details: 12.5 μM retinoic acid, cultured another 4 days
Description: Onto an antireflectively coated glass bottom dish with 35 mm diameter, a 253G1 iPS cell line derived from a human adult fibroblast was seeded at 10 to 20 colonies/dish and cultured on feeder using a Primate ES Medium (manufactured by ReproCELL Incorporated, a commercial name: RCHEMD001) containing 4 ng/mL human basic FGF in the final concentration. The size of one colony was around 200 μn. As the feeder cells, mouse lung fibroblasts were used. The cells were cultured until the third day after the seeding. The medium was replaced once a day. […]
The shape of the cells was observed using a reflection quantitative phase microscope. […]
The bottom surface and surface shapes of the cell were extracted as follows. By using a reflection quantitative phase microscope, three-dimensional data for the cells in a 60 μm×80 μm visual field were obtained every 0.125 μm in the horizontal direction and every 0.32 μm in the vertical direction, and from the obtained data, tomogram images were created. […] From the obtained bottom surfaces and surface shapes, the height of the surface of the cells was measured. The flatness was calculated as a standard deviation of height of the surface of the cells which was standardized with a mean value of height of the surface of the cells, and a statistical processing was done.

[2] = system: 253G1 iPS cell line derived from a human adult fibroblast; test: Flatness per ROI as standard deviation of height standardized with mean height (Example 2); details: ROI unit, 12.5 μM retinoic acid
Description: Onto an antireflectively coated glass bottom dish with 35 mm diameter, a 253G1 iPS cell line derived from a human adult fibroblast was seeded at 10 to 20 colonies/dish and cultured on feeder using a Primate ES Medium (manufactured by ReproCELL Incorporated, a commercial name: RCHEMD001) containing 4 ng/mL human basic FGF in the final concentration. The size of one colony was around 200 μn. As the feeder cells, mouse lung fibroblasts were used. The cells were cultured until the third day after the seeding. The medium was replaced once a day.
A sample of the iPS cells for differentiation, the medium of which was replaced with a Primate ES Medium containing 4 ng/mL human basic FGF and 12.5 μM retinoic acid in the final concentration on the second day after the seeding, was cultured for another 4 days. Retinoic acid is generally used as a reagent for inducing differentiation. In addition, for a control of differentiated cells, MCF7 cells were used which were human breast cancer-derived epithelial cells. The MCF7 cells were seeded at 20% cell density and cultured for 3 days to be approximately confluent using 10% FBS-containing DMEM medium. In each culture system except the MCF7 cell culture system, the medium was replaced once a day.
As to 3 colonies of the undifferentiated iPS cells and 3 colonies of the iPS cells cultured by supplementing retinoic acid, 7 to 15 visual fields around the center of each colony were analyzed. Each visual field was partitioned into six ROIs, and the bottom surfaces and surface shapes of the cells were extracted for each ROI unit to measure the height of the surface of the cells under the same condition as that of Example 1. The size of the ROI was […]×23 μm. The flatness was calculated as a standard deviation of height of the surface of the cells which was standardized with a mean value of height of the surface of the cells, and a statistical processing was done to perform Student's t-test.

[3] = system: 253G1 iPS cell line derived from a human adult fibroblast; test: Variogram analysis, MSHD standardized with mean height, per ROI (Example 3); details: Δr 15 μm, ROI unit
From the text: The flatness may also be a value of MSHD in a predetermined horizontal distance. When a surface shape Z (x, y) is given and two points, A (x1, y1) and B (x2, y2), which are apart from each other at a Δr in the horizontal direction on the Z, are selected, the MSHD can be represented by formula (I). MSHD(Δr)=<(z(x1,y1)−z(x2,y2))^2> (I)
wherein z (x1, y1) is a height of a surface of the cell at A, z (x2, y2) is a height of a surface of the cell at B, and < > is an ensemble average. In addition, (x1, y1) and (x2, y2) are in any combination that satisfies formula (II). Δr=((x1−x2)^2+(y1−y2)^2)^1/2 (II)
Under the same condition as that of Example 2, three-dimensional data for the undifferentiated iPS cells and the iPS cells cultured by supplementing retinoic acid were obtained every 0.125 μm in the horizontal direction and every 0.32 μm in the vertical direction, and from the obtained data, tomogram images were created. From the created tomogram images, the bottom surfaces and surface shapes of the cells were extracted and a variogram analysis was performed. Specifically, a value of MSHD when the Δr was within a range of 0.25 μm to 15 μm was calculated from formula (I) as described above, and standardized with a mean value of height of the surface of the cells.
Next, a value of MSHD when the Δr was […] was calculated and standardized with a mean value of height of the surface of the cells to calculate the flatness. The result was shown as a logarithmic graph (FIG. 6). In a statistical analysis, the common logarithm of the result was calculated to perform Student's t-test (Table 3).

[4] = system: 253G1 iPS cell line derived from a human adult fibroblast; test: Slope of variogram as flatness, per ROI (Example 4); details: Δr 5 μm to 15 μm, ROI unit
From the text: The flatness may also be a slope of a variogram in a horizontal distance between the predetermined two points. In this case, as the numerical value is smaller, the cell is flatter and less differentiated, and as the numerical value is larger, the cell is less flat and is more differentiated. The horizontal distance between the predetermined two points is not limited in particular, as long as the distance is between points enough to definitely determine the difference between undifferentiated pluripotent stem cell and differentiated cell. The relationship between a mean square height difference and a slope of a variogram can be represented by formula (III). MSHD(Δr)∝Δr^S (III)
wherein S is a slope of a graph which represents a variogram in a double logarithmic manner. It should be noted that because of the nature of a log-log graph, even when constantly multiplying the abscissa Δr or ordinate MSHD through the standardization, the graph is only translated parallelly and the slope S is constant with respect to the constantly multiplied abscissa and ordinate. In addition, as shown in the above-mentioned document of Glenn, N. et al., it is a known mathematical approach to represent a variogram by log-log graph and evaluate the statistical nature of the surface shape by slope S.
Under the same condition as that of Example 3, a variogram analysis was performed using a value of MSHD which was standardized with a mean value of height of the surface of the cells, and a slope of the variogram when the Δr was within a range of 5 μm to 15 μm was calculated as the flatness, using formula (III) as described above. Then, a statistical analysis was done to perform Student's t-test.

[5] = system: 253G1 iPS cell line derived from a human adult fibroblast; test: Flatness as MSHD per visual field unit (Example 6)
Description: By using images shot using each sample in Example 2 of one colony (15 visual fields) for the undifferentiated iPS cells and 2 colonies (11 and 13 visual fields, respectively) for the iPS cells cultured by supplementing retinoic acid, the height of the surface of the cells for each visual field unit was measured using a reflection quantitative phase microscope under the same condition as that of Example 2. A value of MSHD when the Δr was 5 μm was calculated and standardized with a mean value of height of the surface of the cells, then the common logarithm was taken and the flatness was calculated. A statistical analysis was done to perform Student's t-test.

SMILES: CC1=C(/C=C/C(C)=C/C=C/C(C)=C/C(=O)O)C(C)(C)CCC1 [Retinoic acid, retinoic acid]
- Mean value of height of the surface of the cells ([1]; 60 μm×80 μm visual field): 6.25 μm
- Flatness (standard deviation of height standardized with mean height) ([1]; iPS cells, larger value = less flat): 18.9%
- Flatness (standard deviation of height standardized with mean height) ([2]; colony RA-1): 0.130
- Flatness (standard deviation of height standardized with mean height) ([2]; colony RA-2): 0.107
- Flatness (standard deviation of height standardized with mean height) ([2]; colony RA-3): 0.123
- Flatness (common logarithm of MSHD standardized with mean height) ([3]; colony RA-1): −1.392
- Flatness (common logarithm of MSHD standardized with mean height) ([3]; colony RA-2): −1.517
- Flatness (common logarithm of MSHD standardized with mean height) ([3]; colony RA-3): −1.425
- Flatness (slope of variogram) ([4]; colony RA-1): 0.848
- Flatness (slope of variogram) ([4]; colony RA-2): 0.744
- Flatness (slope of variogram) ([4]; colony RA-3): 0.880
- Flatness (common logarithm of MSHD standardized with mean height) ([5]; colony RA-1, Δr 5 μm): −1.657
- Flatness (common logarithm of MSHD standardized with mean height) ([5]; colony RA-2, Δr 5 μm): −1.796
